Molecular target: T1, GSK3β (Homo sapiens, UniProt P49841)
T1 construct: purchased Upstate 14-306
Assay: In vitro biochemical GSK3β inhibition assay (coupled pyruvate kinase/lactate dehydrogenase, NADH fluorescence)
Settings: 5 nM GSK3β, 40 μM GSK3β substrate GSM, 50 μM ATP, 30° C. for 2 hours
Protocol: The inhibitory activity of active substances is determined in a biochemical assay. The ingredients required for this purpose are mixed in a black 384-well microtitre plate with transparent base (from Greiner, catalogue number 781092). The requirements in this connection for each well of the 384-well microtitre plate are 5 nM GSK3β (from Upstate, catalogue number 14-306), 40 μM GSK3β substrate GSM (sequence H-RRRPASVPPSPSLSRHS-(pS)-HQRR, from Upstate, catalogue number 2-533), 30 μM nicotinamide adenine dinucleotide NADH (Roche Diagnostics, catalogue number 10107735), 50 μM adenosine triphosphate ATP (from Sigma, catalogue number A7966), 2 mM phosphoenolpyruvate (from Roche, catalogue number 128112), and also about 1 U/ml of pyruvate kinase and about 1 U/ml of lactate dehydrogenase, which are present together in a stock formulation (from Roche, catalogue number 10737291001, suspension with about 450 U/ml of pyruvate kinase activity, about 450 U/ml of lactate dehydrogenase activity in […] ammonium sulphate solution pH 6), where 1 unit pyruvate kinase converts, at pH 7.6 and 37° C., 1 μmol of phosphoenolpyruvate into pyruvate per minute, and where 1 unit of lactate dehydrogenase reduces, at pH 7.5 and 37° C., 1 μmol of pyruvate to lactate per minute. The required reaction buffer in which the biochemical reaction takes place consists of 50 mM Trizma hydrochloride Tris-HCl pH: 7.5 (from Sigma, catalogue number T3253), 5 mM magnesium chloride MgCl2 (from Sigma, catalogue number M8266), 0.2 mM DL-dithiothreitol DTT (from Sigma, catalogue number D9779), 2 mM ethylenediaminetetraacetic acid EDTA (from Sigma, catalogue number E6758), 0.01% Triton X-100 (from Sigma, catalogue number T8787) and 0.05% bovine serum albumin BSA (from Sigma, catalogue number B4287).
Active substances are dissolved in dimethyl sulfoxide DMSO (from Sigma, catalog number D8418) in a concentration of 10 mM. Active substances are added in serial concentrations of 10 μM, 1 μM, 0.1 μM, 0.01 μM, 0.001 μM, 0.0001 μM, 0.00001 μM, 0.000001 μM to the mixtures of the biochemical reaction. As control, dimethyl sulfoxide is added instead of substance in a final concentration of 0.1%.
The reaction is incubated at 30° C. for 2 hours and then the resulting fluorescence is measured in a Tecan Safire-XFLUOR4 instrument, version V4.50 (serial number 12901300283) with the specifications: measurement mode—fluorescence measured from below, extinction wavelength 340 nm, emission wavelength 465 nm, slit width extinction 5 nm, slit width emission 5 nm, gain mode 120, delay 0 μs, number of light flashes per measurement 3, and an integration time of 40 μs.
The activity of the active substances is calculated in relation to these 0% and 100%.

T1 sequence (P49841 whole entry): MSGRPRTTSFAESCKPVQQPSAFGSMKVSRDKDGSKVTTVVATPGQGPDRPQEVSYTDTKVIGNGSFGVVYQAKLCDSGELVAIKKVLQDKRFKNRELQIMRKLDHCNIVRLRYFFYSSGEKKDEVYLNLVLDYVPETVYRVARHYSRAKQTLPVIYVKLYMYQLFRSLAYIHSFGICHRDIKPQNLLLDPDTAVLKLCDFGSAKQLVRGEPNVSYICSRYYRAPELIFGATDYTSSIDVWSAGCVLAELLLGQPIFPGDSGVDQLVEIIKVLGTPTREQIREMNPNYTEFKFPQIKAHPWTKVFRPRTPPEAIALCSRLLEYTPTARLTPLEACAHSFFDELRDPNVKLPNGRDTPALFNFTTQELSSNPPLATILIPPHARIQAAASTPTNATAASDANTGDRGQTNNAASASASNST

IC50 [nM] | SMILES
9 | Nc1nc(NCCNc2nc(-c3ccc(Cl)cc3Cl)cc3nc(C4CCN(CC(=O)O)CC4)nn23)ccc1C(=O)C(F)(F)F [Example 23, (4-{5-[(2-{[6-Amino-5-(trifluoroacetyl)pyridin-2-yl]amino}ethyl)amino]-7-(2,4-dichlorophenyl)-[1,2,4]triazolo[1,5-c]pyrimidin-2-yl}piperidin-1-yl)acetic acid]
15 | CC(C)N1CCC(c2nc3cc(-c4ccc(Cl)cc4Cl)nc(NCCNc4ccc(C(=O)C(F)(F)F)c(N)n4)n3n2)CC1 [Example 1, 1-(2-Amino-6-{[2-({7-(2,4-dichlorophenyl)-2-[1-(propan-2-yl)piperidin-4-yl][1,2,4]triazolo[1,5-c]-pyrimidin-5-yl}amino)ethyl]amino}pyridin-3-yl)-2,2,2-trifluoroethanone]
20 | Nc1nc(NCCNc2nc(-c3ccc(Cl)cc3Cl)cc3nc(C4CCN(CC5CC5)CC4)nn23)ccc1C(=O)C(F)(F)F [Example 21, 1-(2-Amino-6-{[2-({2-[1-(cyclopropylmethyl)piperidin-4-yl]-7-(2,4-dichlorophenyl)-[1,2,4]triazolo[1,5-c]pyrimidin-5-yl}amino)ethyl]amino}pyridin-3-yl)-2,2,2-trifluoroethanone]

More lines, now with the values behind:

SMILES | IC50 [nM]
CC(C)N1CCC(c2nc3cc(-c4ccc(Cl)cc4Cl)nc(N4CCCC(Nc5ccc(C(=O)C(F)(F)F)c(N)n5)C4)n3n2)CC1 (stereo not drawn) [Example 5, 1-{2-Amino-6-[(1-{7-(2,4-dichlorophenyl)-2-[1-(propan-2-yl)piperidin-4-yl][1,2,4]triazolo[1,5-c]-pyrimidin-5-yl}piperidin-3-yl)amino]pyridin-3-yl}-2,2,2-trifluoroethanone] | 10
CC(C)N1CCC(c2nc3cc(-c4ccc(F)cc4Cl)nc(N4CCCC(Nc5ccc(C(=O)C(F)(F)F)c(N)n5)C4)n3n2)CC1 (racemic) [Example Ent-A-13, 1-{2-Amino-6-[(1-{7-(2-chloro-4-fluorophenyl)-2-[1-(propan-2-yl)piperidin-4-yl][1,2,4]-triazolo[1,5-c]pyrimidin-5-yl}piperidin-3-yl)amino]pyridin-3-yl}-2,2,2-trifluoroethanone] | 2
CC(C)N1CCC(c2nc3cc(-c4ccc(F)cc4Cl)nc(N4CCCC(Nc5ccc(C(=O)C(F)(F)F)c(N)n5)C4)n3n2)CC1 (racemic) [Example 13, 1-{2-Amino-6-[(1-{7-(2-chloro-4-fluorophenyl)-2-[1-(propan-2-yl)piperidin-4-yl][1,2,4]-triazolo[1,5-c]pyrimidin-5-yl}piperidin-3-yl)amino]pyridin-3-yl}-2,2,2-trifluoroethanone] | 4
